Results as given in US5879896A, “Method of screening for inhibitors of human thyrotropin releasing hormone (TRH) receptor” (Takeda Chemical Industries, Ltd., priority 1993, dated 1999).
Like-named read-outs stand apart in the source and are kept apart here.

Tests used:
human TRH receptor [1] = biological target: T1, human TRH receptor (Homo sapiens, UniProt P34981); experiment: [3H]TRH binding to Sf9 cells infected with recombinant baculovirus carrying human TRH receptor genes (Example 3); parameters: translation frame (open reading frame) of the human TRH receptor was constructed on pUC118; expressed in transfected cells; conditions: 1000-fold unlabeled TRH (10 μM) (FIG. 8)
T1 sequence (P34981 1-398): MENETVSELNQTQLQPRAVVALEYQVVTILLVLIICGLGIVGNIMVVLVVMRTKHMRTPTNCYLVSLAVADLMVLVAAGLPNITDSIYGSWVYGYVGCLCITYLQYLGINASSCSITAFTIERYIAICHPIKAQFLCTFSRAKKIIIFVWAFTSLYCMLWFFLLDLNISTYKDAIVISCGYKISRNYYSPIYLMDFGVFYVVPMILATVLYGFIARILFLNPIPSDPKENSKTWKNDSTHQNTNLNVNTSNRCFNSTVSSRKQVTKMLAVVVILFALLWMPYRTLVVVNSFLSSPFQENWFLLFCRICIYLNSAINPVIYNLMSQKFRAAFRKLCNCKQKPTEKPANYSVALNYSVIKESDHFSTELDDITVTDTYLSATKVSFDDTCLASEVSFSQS

CHO dhfr- cells = experiment: Release of [3H]-labeled arachidonic acid from control CHO dhfr- cells (Example 7); format: cell-based, Chinese hamster; conditions: TRH added (FIG. 10)
Protocol: (§1) CHO cells into which the human TRH receptor DNAs obtained in Example 4 were subcultured at a density of 1.0×10^6 cells/well to a 12-well tissue culture plate (Sumitomo Bakelite) and cultivated for 24 hours. The medium was removed and replaced by a fresh medium. Then, [^3 H] […] arachidonic acid (du Pont/NEN, specific activity: 60-100 Ci/mmol) was added to give a concentration of 0.5 μCi/well. After addition of arachidonic acid, the cells were further cultivated for 24 hours, and washed three times with Hanks' balanced salt solution (HBSS) supplemented with 0.05% BSA. Thereafter, 495 μl/well of HBSS supplemented with 0.05% BSA was added thereto. Then, 5 μl of a test solution was added thereto, and incubation was conducted for 30 minutes at room temperature to release arachidonic acid in the medium. HBSS (400 μl) of the supernatant was recovered, and mixed with liquid scintillator A (Wako Pure Chemical Industries). The amount of released [^3 H]-labeled arachidonic acid was measured by use of a liquid scintillation counter (Beckmann).

human TRH receptor [2] = biological target: T1, human TRH receptor; experiment: c-fos promoter / secretive alkaline phosphatase assay in human TRH receptor expression CHO cells (Example 9); format: cell-based; parameters: translation frame (open reading frame) of the human TRH receptor was constructed on pUC118; expressed in transfected cells; host or cells: CHO dhfr- cells (plasmid pAKKO1.11 with the human TRH receptor open reading frame); conditions: c-fos promoter activation, overnight (FIG. 14)
Protocol: An insertion of a secretive alkaline phosphatase gene linked to a c-fos promoter into a TRH receptor expression cell was conducted as follows:
5×10^5 TRH receptor expression CHO cells were inoculated onto a 10 cm plate and they were cultivated for 24 hours in Ham's F12 medium (Lifetech Oriental) equipped with 10% fetal bovine serum. 3 μg of a vector (pSVP4-Ap-neo, FIG. 13) which was introduced by a secretive alkaline phosphatase gene downstream from the c-fos promoter was introduced into the CHO cells using a gene introducing kit (Cell Phect, Pharmacia) by calcium phosphate method. The cells introduced by the vector were cloned in the above-described medium equipped with 500 μg/ml of G418. 39 clones were isolated and clones which have high TRH responsiveness were further selected.
Cell stimulating activity through a TRH receptor using activation of c-fos promoter as an indicator was assayed as follows:
Each 5×10^4 of the above-described transformants were inoculated onto 96 hole plates for tissue cultivation (Corning) and they were cultivated for a night. […] The plate was assayed by a fluorescence plate reader (Fluoroskan II, Titertek) at 365 nm of excitation and 450 nm of luminescence.

pituitary glands = conditions: literature; cited from earlier work
human TRH receptor [3] = biological target: T1, human TRH receptor; experiment: Antagonism of [3H]TRH binding in CHO dhfr- cells transformed with human TRH receptor DNA (Examples 5 and 6); parameters: translation frame (open reading frame) of the human TRH receptor was constructed on pUC118; expressed in transfected cells; host or cells: CHO dhfr- cells (plasmid pAKKO1.11 with the human TRH receptor open reading frame); conditions: 1 h
human TRH receptor [4] = biological target: T1, human TRH receptor; experiment: Release of [3H]-labeled arachidonic acid from CHO cells into which human TRH receptor DNAs were introduced (Example 7); format: cell-based; parameters: translation frame (open reading frame) of the human TRH receptor was constructed on pUC118; expressed in transfected cells; host or cells: CHO dhfr- cells (plasmid pAKKO1.11 with the human TRH receptor open reading frame); conditions: TRH concentration dependence, compared with control (HBSS alone) (FIG. 10)
Protocol: as §1
Further, in the receptor binding experiment of Example 6, the releasing activity of arachidonic acid was measured using 4 kinds of compounds strongly that can antagonize the binding of [^3 H]

[5] = read-out: Antagonistic Rate (%) at Each Concentration (-log M)
[6] = read-out: Antagonistic Rate (%) at Each Concentration (-log M) (*1)

NC(=O)[C@@H]1CCCN1C(=O)[C@H](Cc1cnc[nH]1)NC(=O)[C@@H]1CCC(=O)N1 [TRH, pGlu His Pro NH2]
Antagonism of [3H]TRH binding by unlabeled TRH, in words (human TRH receptor [1]): antagonized the binding | Amount of arachidonic acid released, in words (CHO dhfr- cells): no change was observed | Alkaline phosphatase secretion into supernatant, in words (human TRH receptor [2]): alkaline phosphatase secrets into the supernatant depending on the concentration of TRH added | Secretion of pituitary hormones, in words (pituitary glands): promoting secretion of thyroid stimulating hormone and prolactin of the pituitary glands | inhibition at 1 pM (human TRH receptor [3]; [5]): 0% | inhibition at 10 pM (human TRH receptor [3]; [5]): 0.7% | inhibition at 0.0001 µM (human TRH receptor [3]; [5]): 0.3% | inhibition at 0.001 µM (human TRH receptor [3]; [5]): 7.2% | inhibition at 0.01 µM (human TRH receptor [3]; [5]): 52% | inhibition at 0.1 µM (human TRH receptor [3]; [5]): 90.7% | inhibition at 1 µM (human TRH receptor [3]; [5]): 98.7% | inhibition at 10 µM (human TRH receptor [3]; [5]): 99.7% | inhibition at 0.0001 µM (human TRH receptor [3]; [6]): -0.7% | inhibition at 0.001 µM (human TRH receptor [3]; [6]): 4.2% | inhibition at 0.01 µM (human TRH receptor [3]; [6]): 39.8% | inhibition at 0.1 µM (human TRH receptor [3]; [6]): 83.9% | inhibition at 1 µM (human TRH receptor [3]; [6]): 97.8% | inhibition at 10 µM (human TRH receptor [3]; [6]): 99.7% | Amount of arachidonic acid released, in words (human TRH receptor [4]): increase the amount of arachidonic acid released depending upon the concentration
